# Data from patent publication US8410126B2, “Pyrimidine inhibitors of PKTK2” (Boehringer Ingelheim International GmbH, priority 2009, dated 2013).
# Target: T1, PTK2 (Homo sapiens, UniProt Q05397)
# T1 construct: purchased Invitrogen PV3832
# Test: PTK2 enzyme test Assay 2 (DELFIA, poly-Glu-Tyr substrate, PT66 antibody)
# Type: biochemical
# Details: Assay 2 (values marked *); 1 h pre-incubation, 50 μM ATP mix, final DMSO 0.5%
# Text: This test uses active PTK2 enzyme (Invitrogen Code PV3832) and poly-Glu-Tyr (4:1, Sigma P-0275) as the kinase substrate. The kinase activity is detected by means of the phosphorylation of the substrate in a DELFIA™ assay. The phosphorylated substrate is detected with the europium-labelled phosphotyrosine antibody PT66 (Perkin Elmer, No.: AD0040).
# In order to determine concentration-activity curves with PTK2-inhibitors the compounds are serially diluted first of all in 100% DMSO and then in kinase dilution buffer (20 mM TRIS/HCl pH 7.5, 0.1 mM EDTA, 0.1 mM EGTA, 0.286 mM sodium orthovanadate, 10% glycerol with the addition of freshly prepared BSA (fraction V, 1 mg/mL) and DTT (1 mM)) and 10 μL of each dilution are dispensed per well in a 96-well microtitre plate (clear U-shaped base plate, Greiner No. 650101) (the inhibitors are tested in duplicates) and mixed with 10 μL/well of PTK2 kinase (0.01 μg/well). PTK2 kinase is diluted accordingly beforehand with kinase dilution buffer. The diluted PTK2 inhibitor and the PTK2 kinase are pre-incubated for 1 h at RT and shaken at 500 revolutions per min. Then 10 μL/well poly-Glu-Tyr substrate (25 μg/well poly-Glu-Tyr, 0.05 μg/well biotinylated poly-Glu-Tyr dissolved in 250 mM TRIS/HCl pH 7.5, 9 mM DTT) are added. The reaction is started by the addition of 20 μL of ATP Mix (30 mM TRIS/HCl pH 7.5, 0.02% Brij, 0.2 mM sodium orthovanadate, 10 mM magnesium acetate, 0.1 mM EGTA, 1× phosphatase inhibitor cocktail 1 (Sigma, No.: P2850), 50 μM ATP (Sigma, No.: A3377; 15 mM stock solution))—the final concentration of DMSO is 0.5%. After 1 h kinase reaction (the plates are shaken at 500 rpm), the reaction is stopped by the addition of 12 μL/well of 100 mM EDTA, pH 8, and shaken for a further 5 min at RT (500 U/min). 55 μL of the reaction mixture are transferred into a streptavidin plate (Strepta Well High Bind (transparent, 96-well) made by Roche, No.: 11989685001) and incubated for 1 h at RT (shaking at 500 rpm). Then the microtitre plate is washed five times with 200 μL/well D-PBS (Invitrogen, No. 14190). 100 μL of a solution containing DELFIA Eu-N1 Anti-Phosphotyrosine PT66 antibody (Perkin Elmer, No.: AD0040, diluted 1:9000 in DELFIA test buffer (Perkin Elmer, No.: 1244-111)) is then added and it is incubated for 1 h at RT (shaking at 500 rpm). Then the plate is washed five times with 200 μL/well DELFIA washing buffer (Perkin Elmer, No.: 1244-114), 200 μL/well strengthening solution (Perkin Elmer, No.: 1244-105) is added and the whole is incubated for 10 min at RT (shaking at 300 rpm).
# The time-delayed europium fluorescence is then measured in a microtitre plate reader (VICTOR^3, Perkin Elmer). The positive control consists of wells that contain solvent (0.5% DMSO in test buffer) and display uninhibited kinase activity. Wells that contain test buffer instead of enzyme act as a control for the background kinase activity.
# The IC50 values are determined from concentration-activity analyses by iterative calculation using a sigmoid curve analysis algorithm (FIFTY, based on GraphPAD Prism Version 3.03) with a variable Hill coefficient.
# T1 sequence (Q05397 whole entry): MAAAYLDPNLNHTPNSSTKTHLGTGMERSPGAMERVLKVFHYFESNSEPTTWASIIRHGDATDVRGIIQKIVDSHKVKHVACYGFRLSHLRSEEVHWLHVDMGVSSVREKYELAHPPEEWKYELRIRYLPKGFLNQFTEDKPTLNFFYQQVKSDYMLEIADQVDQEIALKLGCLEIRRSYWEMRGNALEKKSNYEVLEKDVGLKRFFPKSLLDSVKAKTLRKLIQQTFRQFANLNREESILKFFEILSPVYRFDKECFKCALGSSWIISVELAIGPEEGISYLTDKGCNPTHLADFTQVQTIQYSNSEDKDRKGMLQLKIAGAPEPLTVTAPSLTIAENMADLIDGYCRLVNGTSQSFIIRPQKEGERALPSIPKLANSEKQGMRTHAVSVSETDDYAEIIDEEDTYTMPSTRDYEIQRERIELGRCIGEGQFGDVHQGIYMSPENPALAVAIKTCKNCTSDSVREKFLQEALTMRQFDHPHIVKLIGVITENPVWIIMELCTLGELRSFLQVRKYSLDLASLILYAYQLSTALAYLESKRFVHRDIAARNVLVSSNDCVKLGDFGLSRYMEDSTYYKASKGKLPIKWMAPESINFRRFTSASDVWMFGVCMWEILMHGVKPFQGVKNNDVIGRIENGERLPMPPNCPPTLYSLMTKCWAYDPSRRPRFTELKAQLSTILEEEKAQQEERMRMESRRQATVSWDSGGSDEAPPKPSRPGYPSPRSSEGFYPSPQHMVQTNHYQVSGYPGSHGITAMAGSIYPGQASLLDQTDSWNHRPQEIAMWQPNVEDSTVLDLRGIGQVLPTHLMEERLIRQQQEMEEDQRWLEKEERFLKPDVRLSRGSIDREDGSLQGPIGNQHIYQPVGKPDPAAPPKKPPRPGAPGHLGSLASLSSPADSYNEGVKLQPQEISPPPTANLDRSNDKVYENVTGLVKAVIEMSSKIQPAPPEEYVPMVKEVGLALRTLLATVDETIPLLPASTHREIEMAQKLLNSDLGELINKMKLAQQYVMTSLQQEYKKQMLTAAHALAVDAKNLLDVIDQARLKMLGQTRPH
row,IC50,Structure (SMILES)
1,0.3 nM,"COc1cc(F)c(C(=O)NC2CCN(C)CC2)cc1Nc1ncc(Cl)c(N[C@@H]2Cc3ccccc3[C@H]2N(C)S(C)(=O)=O)n1 [Example I-75, 5-{5-chloro-4-[(1R,2R)-1-(methanesulphonyl-methyl-amino)-indan-2-ylamino]-pyrimidin-2-ylamino}-2-fluoro-4-methoxy-N-(1-methyl-piperidin-4-yl)-benzamide]"
2,0.37 nM,COc1ccc(C(=O)NC2CCN(C)CC2)cc1Nc1ncc(C(F)(F)F)c(N[C@@H]2Cc3ccccc3[C@H]2N(C)S(C)(=O)=O)n1 [Example I-69]
3,0.47 nM,COc1cc(C(=O)NN2CCN(C)CC2)ccc1Nc1ncc(C(F)(F)F)c(N[C@@H]2Cc3ccccc3[C@H]2N(C)S(C)(=O)=O)n1 [Example I-83]
4,0.43 nM,"COc1ccc(NC(=O)C2CCN(C)C2)cc1Nc1ncc(C(F)(F)F)c(N[C@@H]2Cc3ccccc3[C@H]2N(C)S(C)(=O)=O)n1 (stereo partly drawn) [Example I-61, 1-methyl-pyrrolidine-3-carboxylic acid (3-{4-[(1R,2R)-1-(methanesulphonyl-methyl-amino)-indan-2-ylamino]-5-trifluoromethyl-pyrimidin-2-ylamino}-4-methoxy-phenyl)-amide]"
5,0.36 nM,"COc1cc(F)c(C(=O)NC2CCN(C)CC2)cc1Nc1ncc(C(F)(F)F)c(N[C@@H]2Cc3ccccc3[C@H]2N(C)S(C)(=O)=O)n1 [Example I-80, 2-fluoro-5-{4-[(1R,2R)-1-(methanesulphonyl-methyl-amino)-indan-2-ylamino]-5-trifluoromethyl-pyrimidin-2-ylamino}-4-methoxy-N-(1-methyl-piperidin-4-yl)-benzamide]"
6,0.62 nM,"COc1ccc(NC(=O)C2CCN(C)CC2)cc1Nc1ncc(C(F)(F)F)c(N[C@@H]2Cc3ccccc3[C@H]2N(C)S(C)(=O)=O)n1 [Example I-62, 1-methyl-piperidine-4-carboxylic acid (3-{4-[(1R,2R)-1-(methanesulphonyl-methyl-amino)-indan-2-ylamino]-5-trifluoromethyl-pyrimidin-2-ylamino}-4-methoxy-phenyl)-amide]"
7,0.44 nM,COc1ccc(C(=O)N(C)CCN2CCCC2)cc1Nc1ncc(C(F)(F)F)c(N[C@@H]2Cc3ccccc3[C@H]2N(C)S(C)(=O)=O)n1 [Example I-85]
8,0.68 nM,"CCc1cc(Nc2ncc(C(F)(F)F)c(N[C@@H]3Cc4ccccc4[C@H]3N(C)S(C)(=O)=O)n2)c(OC)cc1N1CCN(C)CC1 [Example I-67, N-((1R,2R)-2-{2-[5-ethyl-2-methoxy-4-(4-methyl-piperazin-1-yl)-phenylamino]-5-trifluoromethyl-pyrimidin-4-ylamino}-indan-1-yl)-N-methyl-methanesulphonamide]"
9,0.48 nM,COc1cc(N2CCNCC2=O)ccc1Nc1ncc(C(F)(F)F)c(N[C@@H]2Cc3ccccc3[C@H]2N(C)S(C)(=O)=O)n1 [Example I-87]
10,0.66 nM,"COc1cc(N2CCNCC2)c(C)cc1Nc1ncc(C(F)(F)F)c(N[C@@H]2Cc3ccccc3[C@H]2N(C)S(C)(=O)=O)n1 [Example I-74, N-{(1R,2R)-2-[2-(2-methoxy-5-methyl-4-piperazin-1-yl-phenylamino)-5-trifluoromethyl-pyrimidin-4-ylamino]-indan-1-yl}-N-methyl-methanesulphonamide]"
